Laboratory results as given in US20100204128A1, “NOVEL PEPTIDES” (SANARE INVESTMENT AS, priority 2007, published 2010).
Several values for one entry are separate records, joined by “and”; a condition that tells them apart may be missing. Equal entries are not always repeated.

Key:
Type in all cases: cell-based
Conditions in all cases: for fluorescent readings: 24 hours, duplicate wells
MCF-7 cells = assay: AlmarBlue fluorescence cell growth test, MCF-7 cells
Protocol: (§1) Re-feed media were prepared to yield the following final six concentrations of each of the 12 peptides: 5×10^−3, 5×10^−4, 5×10^−5, 5×10^−6, 5×10^−7, and 5×10^−8M. […] With that, the 5×10^−3M mixture contains about 0.42×10^−3M of each peptide. […] With that, the 5×10^−3M mixture contains about 0.42×10^−3M of each of said 8 peptides.
(§2) MCF-7 and T47D cells were seeded into 96-well plates at a density of 10,000 cells per well in 90 μL of appropriate culture medium. TMX2-28 cells were seeded into 96-well plates at a density of 5,000 cells per well in 90 μL of appropriate culture medium. Plates were placed in a 37° C., 5% CO2 incubator and cells were allowed to attach to the bottom of the well for 24 hours after which 10 μL of the appropriate refeed medium was added. Each concentration was tested in duplicate in each cell line. […] Cells were then incubated for 24 hours. Subsequently 10 μL of AlmarBlue (Biosource) was added to each well. After three hours, the fluorescence was detected using a Packard Instrument Plate Reader with 535/20 excitation and 590/20 emission filters.

TMX2-28 cells = assay: AlmarBlue fluorescence cell growth test, TMX2-28 cells
Protocol: With that, the 5×10^−3M mixture contains about 0.42×10^−3M of each peptide. Furthermore, mixtures containing equal volumes of peptides SEQ ID NO:2-SEQ ID NO:7, SEQ ID NO:10 and SEQ ID NO:11 were also prepared (equal volumes of said re-feed media) to yield the following final six concentrations: […] With that, the 5×10^−3M mixture contains about […].
as §2

T47D cells = assay: AlmarBlue fluorescence cell growth test, T47D cells
Protocol: as §1, §2

[1] = 5 × 10^−4 M (mixtures: total concentration), decrease vs DC5 = reduced cell growth
[2] = 5 × 10^−5 M (mixtures: total concentration)
[3] = 5 × 10^−6 M (mixtures: total concentration)
[4] = 5 × 10^−7 M (mixtures: total concentration)
[5] = 5 × 10^−8 M (mixtures: total concentration)
[6] = 5 × 10^−9 M (mixtures: total concentration)

SEQIDNO11: synthesised peptide identified in the 10 kDa blood fraction after acupuncture; sequence not printed in the text (TLAGENQTALEIEELNRK; Derived from human blood sample)
fluorescent readings (MCF-7 cells; [1]): 65114 and 72373
fluorescent readings (MCF-7 cells; [2]): 65947 and 68983
fluorescent readings (MCF-7 cells; [3]): 64058 and 64030
fluorescent readings (MCF-7 cells; [4]): 63837 and 64861
fluorescent readings (MCF-7 cells; [5]): 60430 and 65118
fluorescent readings (MCF-7 cells; [6]): 60886 and 63795
fluorescent readings (TMX2-28 cells; [1]): 66600 and 67446
fluorescent readings (TMX2-28 cells; [2]): 67045 and 66528
fluorescent readings (TMX2-28 cells; [3]): 66568 and 64759
fluorescent readings (TMX2-28 cells; [4]): 64371 and 65373
fluorescent readings (TMX2-28 cells; [5]): 65587 and 66707
fluorescent readings (TMX2-28 cells; [6]): 64433 and 65703
fluorescent readings (T47D cells; [1]): 61976 and 62453
fluorescent readings (T47D cells; [2]): 61546 and 64267
fluorescent readings (T47D cells; [3]): 62448 and 60200
fluorescent readings (T47D cells; [4]): 62557 and 63900
fluorescent readings (T47D cells; [5]): 62018 and 64649
fluorescent readings (T47D cells; [6]): 63935 and 65696

SEQIDNO2: synthesised peptide identified in the 10 kDa blood fraction after acupuncture; sequence not printed in the text (KVGAHAGEYGAEALER; Derived from human blood sample)
fluorescent readings (MCF-7 cells; [1]): 68630 and 65876
fluorescent readings (MCF-7 cells; [2]): 66492 and 66554
fluorescent readings (MCF-7 cells; [3]): 65617 and 65531
fluorescent readings (MCF-7 cells; [4]): 63699 and 63627
fluorescent readings (MCF-7 cells; [5]): 63539 and 63477
fluorescent readings (MCF-7 cells; [6]): 63298 and 62132
fluorescent readings (TMX2-28 cells; [1]): 70121 and 70743
fluorescent readings (TMX2-28 cells; [2]): 70162 and 68517
fluorescent readings (TMX2-28 cells; [3]): 69083 and 71861
fluorescent readings (TMX2-28 cells; [4]): 72557 and 73134
fluorescent readings (TMX2-28 cells; [5]): 72061 and 73603
fluorescent readings (TMX2-28 cells; [6]): 68910 and 72372
fluorescent readings (T47D cells; [1]): 66780 and 68474
fluorescent readings (T47D cells; [2]): 67257 and 66607
fluorescent readings (T47D cells; [3]): 63525 and 67453
fluorescent readings (T47D cells; [4]): 64064 and 66021
fluorescent readings (T47D cells; [5]): 62463 and 63876
fluorescent readings (T47D cells; [6]): 57744 and 60399

SEQIDNO1: synthesised peptide identified in the 10 kDa blood fraction after acupuncture; sequence not printed in the text (ASPVAPLDPLLKYGRGQPVSSASGTTTDLGQ; Derived from human blood sample)
fluorescent readings (MCF-7 cells; [1]): 69131 and 67176
fluorescent readings (MCF-7 cells; [2]): 65474 and 66009
fluorescent readings (MCF-7 cells; [3]): 65860 and 64140
fluorescent readings (MCF-7 cells; [4]): 62613 and 62686
fluorescent readings (MCF-7 cells; [5]): 63693 and 62463
fluorescent readings (MCF-7 cells; [6]): 62279 and 60719
fluorescent readings (TMX2-28 cells; [1]): 74129 and 72743
fluorescent readings (TMX2-28 cells; [2]): 73649 and 71774
fluorescent readings (TMX2-28 cells; [3]): 72975 and 71640
fluorescent readings (TMX2-28 cells; [4]): 74503 and 75697
fluorescent readings (TMX2-28 cells; [5]): 75445 and 77164
fluorescent readings (TMX2-28 cells; [6]): 71409 and 71588
fluorescent readings (T47D cells; [1]): 65814 and 66151
fluorescent readings (T47D cells; [2]): 64794 and 65757
fluorescent readings (T47D cells; [3]): 63241 and 63091
fluorescent readings (T47D cells; [4]): 63036 and 62709
fluorescent readings (T47D cells; [5]): 62633 and 62689
fluorescent readings (T47D cells; [6]): 55767 and 59593

SEQIDNO3: synthesised peptide identified in the 10 kDa blood fraction after acupuncture; sequence not printed in the text (KTFTVTEGSMAGGAWGRL; Derived from human blood sample)
fluorescent readings (MCF-7 cells; [1]): 63831 and 65178
fluorescent readings (MCF-7 cells; [2]): 64053 and 64928
fluorescent readings (MCF-7 cells; [3]): 64217 and 64899
fluorescent readings (MCF-7 cells; [4]): 62452 and 66233
fluorescent readings (MCF-7 cells; [5]): 61563 and 63132
fluorescent readings (MCF-7 cells; [6]): 62603 and 61621
fluorescent readings (TMX2-28 cells; [1]): 68963 and 67344
fluorescent readings (TMX2-28 cells; [2]): 69237 and 66454
fluorescent readings (TMX2-28 cells; [3]): 71007 and 67496
fluorescent readings (TMX2-28 cells; [4]): 72558 and 69648
fluorescent readings (TMX2-28 cells; [5]): 72686 and 69197
fluorescent readings (TMX2-28 cells; [6]): 69066 and 70821
fluorescent readings (T47D cells; [1]): 61359 and 61718
fluorescent readings (T47D cells; [2]): 66736 and 61724
fluorescent readings (T47D cells; [3]): 65079 and 58554
fluorescent readings (T47D cells; [4]): 64329 and 59141
fluorescent readings (T47D cells; [5]): 61766 and 61031
fluorescent readings (T47D cells; [6]): 59482 and 59451

SEQIDNO8: synthesised peptide identified in the 10 kDa blood fraction after acupuncture; sequence not printed in the text (GVLLVRAPPACLQVLR; Derived from human blood sample)
fluorescent readings (MCF-7 cells; [1]): 64002 and 64485
fluorescent readings (MCF-7 cells; [2]): 68720 and 70447
fluorescent readings (MCF-7 cells; [3]): 69897 and 70376
fluorescent readings (MCF-7 cells; [4]): 68985 and 70404
fluorescent readings (MCF-7 cells; [5]): 68423 and 68263
fluorescent readings (MCF-7 cells; [6]): 61653 and 66015
fluorescent readings (TMX2-28 cells; [1]): 63114 and 65457
fluorescent readings (TMX2-28 cells; [2]): 67475 and 69324
fluorescent readings (TMX2-28 cells; [3]): 68833 and 70414
fluorescent readings (TMX2-28 cells; [4]): 70559 and 72074
fluorescent readings (TMX2-28 cells; [5]): 70603 and 73593
fluorescent readings (TMX2-28 cells; [6]): 68676 and 68864
fluorescent readings (T47D cells; [1]): 62688 and 60767
fluorescent readings (T47D cells; [2]): 68041 and 64777
fluorescent readings (T47D cells; [3]): 66479 and 60908
fluorescent readings (T47D cells; [4]): 65388 and 63864
fluorescent readings (T47D cells; [5]): 64353 and 63685
fluorescent readings (T47D cells; [6]): 64124 and 63134

CC/C(=C(\c1ccccc1)c1ccc(OCCN(C)C)cc1)c1ccccc1 [Tamoxifen, reference compound]
effect on proliferation (in words) (MCF-7 cells; 24 hours incubation): insufficient to decrease the proliferation

SEQIDNO9: synthesised peptide identified in the 10 kDa blood fraction after acupuncture; sequence not printed in the text (SSNNGCMRDPTLYRCK; Derived from human blood sample)
fluorescent readings (MCF-7 cells; [1]): 67879 and 68176
fluorescent readings (MCF-7 cells; [2]): 65563 and 69218
fluorescent readings (MCF-7 cells; [3]): 65046 and 65931
fluorescent readings (MCF-7 cells; [4]): 63071 and 65962
fluorescent readings (MCF-7 cells; [5]): 57728 and 62231
fluorescent readings (MCF-7 cells; [6]): 62556 and 61065
fluorescent readings (TMX2-28 cells; [1]): 71608 and 70176
fluorescent readings (TMX2-28 cells; [2]): 69255 and 69328
fluorescent readings (TMX2-28 cells; [3]): 69234 and 68280
fluorescent readings (TMX2-28 cells; [4]): 67663 and 69155
fluorescent readings (TMX2-28 cells; [5]): 67229 and 67807
fluorescent readings (TMX2-28 cells; [6]): 68009 and 65131
fluorescent readings (T47D cells; [1]): 67492 and 77427
fluorescent readings (T47D cells; [2]): 63181 and 64535
fluorescent readings (T47D cells; [3]): 62848 and 62359
fluorescent readings (T47D cells; [4]): 63130 and 68689
fluorescent readings (T47D cells; [5]): 60146 and 64467
fluorescent readings (T47D cells; [6]): 65094 and 67070

SEQIDNO7: synthesised peptide identified in the 10 kDa blood fraction after acupuncture; sequence not printed in the text (RMSIQCDVWRSKFLASRV; Derived from human blood sample)
fluorescent readings (MCF-7 cells; [1]): 64171 and 62704
fluorescent readings (MCF-7 cells; [2]): 67257 and 64433
fluorescent readings (MCF-7 cells; [3]): 66311 and 66105
fluorescent readings (MCF-7 cells; [4]): 63995 and 67019
fluorescent readings (MCF-7 cells; [5]): 65755 and 66292
fluorescent readings (MCF-7 cells; [6]): 60589 and 62763
fluorescent readings (TMX2-28 cells; [1]): 58887 and 60090
fluorescent readings (TMX2-28 cells; [2]): 64931 and 66366
fluorescent readings (TMX2-28 cells; [3]): 68010 and 67591
fluorescent readings (TMX2-28 cells; [4]): 68325 and 70586
fluorescent readings (TMX2-28 cells; [5]): 67109 and 70471
fluorescent readings (TMX2-28 cells; [6]): 62010 and 66328
fluorescent readings (T47D cells; [1]): 62688 and 60767
fluorescent readings (T47D cells; [2]): 68041 and 64777
fluorescent readings (T47D cells; [3]): 66479 and 60908
fluorescent readings (T47D cells; [4]): 65388 and 63864
fluorescent readings (T47D cells; [5]): 64353 and 63685
fluorescent readings (T47D cells; [6]): 64124 and 63134

c1ccc2c(c1)cc1ccc3cccc4ccc2c1c34 [BaP, Benzo[a]pyrene, reference compound]
effect on proliferation (in words) (TMX2-28 cells; 24 hours incubation): insufficient to decrease the proliferation
effect on proliferation (in words) (T47D cells; 24 hours incubation): insufficient to decrease the proliferation
